From patent publication US20140121126A1, “METHODS OF DETECTING AXL AND GAS6 IN CANCER PATIENTS” (Memorial Sloan-Kettering Cancer Center, priority 2012, published 2014)

Assays:
[1] = system: HCC827 ER1-ER5 sublines; test: Cell viability assay (CellTiterGLO), erlotinib resistant HCC827 ER1-ER5 sublines; settings: for effect of single-agent treatment on cell viability: 1 μM alone, HCC827 ER cells; for effect on sensitivity to concurrent erlotinib treatment: AXL inhibitor 1 μM plus erlotinib, each ER subline
Protocol: (§8) Cell growth and viability assays. Cells were seeded at a density of 3000 cells/well in 96-well plates in RPMI 1640 containing 10% FBS overnight, then treated with respective agents for an additional 3 days. Viable cell numbers were determined using CellTiterGLO or MTS assay kit, as indicated in the descriptions of the drawings, according to the manufacturer's protocols (Promega, Madison, Wis., USA). Each assay consisted of 3 replicate wells and was repeated at least twice. Data were expressed as the percentage survival of control calculated from the absorbance, corrected for background.

[2] = system: H3255 ER sublines; test: Cell viability, erlotinib-resistant H3255 ER sublines; type: cell-based, human; settings: for effect on sensitivity to concurrent erlotinib treatment: H3255 ER sublines
Source text: Establishment of erlotinib-resistant subclones.
(§1) Cell growth and viability assays.

[3] = system: HCC827ER cells; test: Combination index (CI) analysis with erlotinib; type: cell-based, human; settings: ER1 and ER4 sublines; 1:1 ratio; CI < 1 = synergism
Source text: Combination index (CI) analysis. […] The fraction affected (Fa) (i.e., Fa of 0.25 is equivalent to 75% viable cells) and CI values processed using CalcuSyn software (Biosoft, Cambridge, UK). CI values of less than 1, 1, and greater than 1 were taken as synergism, additive effect, and antagonism, respectively.

[4] = system: HCC827 ER1 and ER2 cells; test: Western blot of signaling biomarkers, HCC827 ER1 and ER2 cells; type: cell-based, human; settings: for erlotinib effects (decreased pEGFR, pERK, pAKT, pRelA, increased cleaved Parp) with concurrent AXL inhibitor: concurrent treatment with erlotinib, 48 h
Protocol: (§2) Western blot analysis. Cells were serum starved overnight and whole cell lysates were prepared using 10% TCA lysis or RIPA buffer and clarified by centrifugation. Proteins were separated by 10% SDS-PAGE gel and transferred onto PVDF membranes (Invitrogen) for Western blot analysis. After primary antibody incubation overnight, washing and incubation with secondary antibodies, blots were developed with a chemiluminescence system (Pierce).

[5] = system: HCC827 cells; test: Cell viability assay (CellTiterGLO), parental HCC827 cells; settings: 1 μM alone
Protocol: Cell lines and reagents. The human lung cancer cell lines were purchased from the American Type Culture Collection except for H3255, PC-9 cells were generously provided. Cells were grown in RPMI 1640 supplemented with 10% FBS and 1× Antibiotic/Antimycotic (Invitrogen) and were in the logarithmic growth phase at the initiation of all experiments. […] Drugs were dissolved in DMSO at 10 mM and stored at −20° C. The final DMSO concentration in all experiments was <0.1% in medium. All antibodies were purchased from Cell Signaling (Boston, Mass.) except the anti-AXL and anti-phospho-AXL and anti-GAS6 antibodies, which were purchased from R&D Systems (Minneapolis, Minn.).
as §8

[6] = system: H3255 cells; test: Cell viability, parental H3255 cells; type: cell-based; settings: Homo sapiens, NCI-H3255, read-out: erlotinib IC50, EGFR L858R
Protocol: as §8

[7] = system: PC9 cells; test: Cell viability (CellTiterGLO), PC9 cells; type: cell-based; settings: Homo sapiens, PC-9, read-out: erlotinib IC50, EGFR exon 19-deletion mutant
Source text: (§3) To address these questions, we generated cDNA constructs that encode either wild type (WT) AXL or a kinase-impaired mutant of AXL in which a key conserved lysine within the kinase domain was changed to arginine (K567R).
as §1

[8] = system: HCC827 xenograft tumors
Protocol: (§4) Tumorigenesis assays. Human lung cancer cells (as indicated) were injected subcutaneously into the flanks of CB17 SCID mice (Taconic). […] Tumor measurements were made on days indicated and expressed as described in the descriptions of the drawings. All animal experiments were performed in compliance with the guidelines of the Research Animal Resource Center of the Memorial Sloan-Kettering Cancer Center.

[9] = system: HCC827 ER1 tumors; test: HCC827 ER1 xenograft tumors treated with erlotinib; type: in vivo, mice; settings: ER1 tumors transduced with non-target shRNA, 12.5 mg/kg/day
Protocol: as §4

[10] = system: parental HCC827 cells; test: Western blot of signaling biomarkers, parental HCC827 cells; type: cell-based, human; settings: erlotinib 100 nM
Protocol: as §2

[11] = system: HCC827 tumors; test: Western blot of signaling biomarkers in HCC827 xenograft tumors; type: in vivo, mice
Protocol: as §2, §4

[12] = system: ER4 cells; test: Apoptosis by PARP cleavage and BIM induction in ER4 cells; type: cell-based, human; settings: 24 hour exposure; AD57 1 micromolar, AD80 1 micromolar
Protocol: FIG. 22. Induction of apoptosis by combined EGFR and AXL inhibition. […] 24-hour drug exposure. Apoptosis measured by induction of PARP cleavage and BIM induction.

[13] = system: HCC827 ER3 cells; test: Migration and adhesion, HCC827 ER3 cells; type: cell-based, human; settings: XL-880 1 μM (FIG. 4c-d)
Protocol: (§5) [Vuoriluoto, K. et al. Oncogene 30, 1436-1448 (2011)] […] Together, the data support a possible role for an EMT that is marked by vimentin overexpression in the development of acquired EGFR TKI resistance that is driven by AXL in this model of human EGFR mutant lung cancer.
(§6) Migration and adhesion studies. 180,000 cells were plated onto 3.5 cm cell culture dishes. At 30 minutes, the dishes were washed and cells were fixed and stained for counting. Average cell numbers of 5 random 100× fields under light microscope are presented with ±SEM. Migration: 10,000 cells in 200 μl medium without FBS were placed in the upper chamber of transwells (6.5 mm diameter, 8 μm pore size polycarbonate membrane, Corning), and the lower chamber filled with 1 ml of medium with 10% FBS supplemented with or without the indicated drug treatments. After incubation for 16 hours, non-migrating cells were removed with cotton swabs, and the cells that migrated into the lower surface of the filters were stained with crystal violet. Cells were counted under a microscope, and triplicate results are expressed as means±SEM.

[14] = system: parental HCC827 cells; test: Migration and adhesion, parental HCC827 cells; type: cell-based, human; settings: XL-880 1 μM (FIG. 4c-d)
Protocol: as §5, §6

[15] = system: HCC827 cells expressing AXL constructs; test: Viability of HCC827 cells expressing AXL cDNA constructs; type: cell-based, human
Source text: as §3, §1
(§7) AXL cDNA and overexpression studies. The AXL gene with an HA tag at the C-terminus was amplified by overlapping PCR using cDNA generated from ER3 cells and cloned into pcDNA3.1 (+) vector. Amino acid changes (K567R or L620M) were introduced using the Strategene QuickChange Mutagenesis Kit, according to the manufacturer's protocol. The accuracy of the constructs was confirmed by DNA sequencing. Cells were transfected with the AXL-expressing vectors or empty vector as a control by using FuGENE HD reagent according to the manufacturer's protocol (Roche Applied Sciences, Indianapolis, Ind., USA). Stable HCC827 subclones resistant to the selection antibiotic, 500 μg/ml G418 were generated 24 hours post-transfection. Empty-vector expressing HCC827 cells were generated as a control. AXL protein expression was detected by using anti-HA probe (Santa Cruz Biotechnology).

[16] = system: AXL; test: pAXL western blot in HCC827 cells expressing AXL L620M; type: cell-based, human
Protocol: Cancer research 69, 8009-8016 (2009); Yun, C. H. et al. PNAS 105, 2070-2075 (2008)] (FIG. 18).
as §2, §7

[17] = ER4 cells, 0.1, 1, 10 micromolar in combination with erlotinib

C[C@@H](Oc1cc(-c2cnn(C3CCNCC3)c2)cnc1N)c1c(Cl)ccc(F)c1Cl [Crizotinib, crizotinib]
effect on sensitivity to erlotinib ([1]; ER cells, at 10 μM, in combination with erlotinib): confers dose-dependent sensitivity to erlotinib

S=C(NCc1ccc2c(c1)OCO2)N1CCN(c2ncnc3c2oc2ccccc23)CC1 [MP-470, amuvatinib]
effect on sensitivity to concurrent erlotinib treatment [2]: restored sensitivity to concurrent erlotinib treatment
synergy with concurrent erlotinib treatment (combination index) [3]: synergistic
erlotinib effects (decreased pEGFR, pERK, pAKT, pRelA, increased cleaved Parp) with concurrent AXL inhibitor [4]: observed only upon concurrent treatment
effect of single-agent treatment on cell viability [5]: did not significantly affect the viability
effect of single-agent treatment on cell viability [1]: did not significantly affect the viability
effect on sensitivity to concurrent erlotinib treatment [1]: restored sensitivity to concurrent erlotinib treatment

C#Cc1cccc(Nc2ncnc3cc(OCCOC)c(OCCOC)cc23)c1 [Erlotinib, erlotinib]
IC50 [6]: ~15 nM
IC50 ([2]; Homo sapiens, NCI-H3255, read-out: erlotinib IC50, 2 isogenic erlotinib-resistant sublines of H3255 (EGFR L858R)): > 1000 nM
IC50 [7]: ~25 nM
Maximum Volume Reduction (% change from baseline) ([8]; erlotinib 25 mg/kg, 10 tumors per group, average): −69 % change from baseline
Time to Maximum Volume Reduction (weeks) ([8]; erlotinib 25 mg/kg, median ± SEM): 5 ± 0.2 weeks
tumor response to erlotinib treatment ([8]; parental HCC827 tumors, 12.5 mg/kg/day): sensitive
tumor response to erlotinib treatment [9]: erlotinib-resistant
effect on pERK, pAKT, pRelA and Parp cleavage [10]: decreased pERK, pAKT and pRelA (a marker of NF-kB signaling) and increased Parp cleavage
effect on pEGFR ([10]; parental HCC827): decreased pEGFR
effect on pEGFR ([4]; erlotinib 100 nM, ER1 and ER2 sublines): decreased pEGFR
effect on pEGFR, pErbB3 and pMET in tumors ([11]; sensitive tumors at 48 h and resistant tumors at each dose, vs vehicle): decreased levels of pEGFR, pErbB3, and pMET
effect on pAKT, pERK, pRelA and Parp cleavage in tumors ([11]; sensitive tumors, 48 h treatment, 12.5 mg/kg/day): decreased pAKT, pERK, and pRelA and increased Parp cleavage

CC(C)n1nc(-c2ccc(NC(=O)Nc3cccc(C(F)(F)F)c3)cc2)c2c(N)ncnc21 [AD57]
apoptosis (PARP cleavage and BIM induction) combined with erlotinib [12]: enhances apoptosis
effect on sensitivity to erlotinib [1, 17]: confer dose-dependent sensitivity to erlotinib

CC(C)n1nc(-c2ccc(NC(=O)Nc3cc(C(F)(F)F)ccc3F)cc2)c2c(N)ncnc21 [AD80]
apoptosis (PARP cleavage and BIM induction) combined with erlotinib [12]: enhances apoptosis
effect on sensitivity to erlotinib [1, 17]: confer dose-dependent sensitivity to erlotinib

COc1cc2c(Oc3ccc(NC(=O)C4(C(=O)Nc5ccc(F)cc5)CC4)cc3F)ccnc2cc1OCCCN1CCOCC1 [XL-880, foretinib]
effect on sensitivity to concurrent erlotinib treatment [2]: restored sensitivity to concurrent erlotinib treatment
effect on migration and adhesion [13]: inhibited migration and adhesion
effect on migration and adhesion [14]: had no effect
erlotinib effects (decreased pEGFR, pERK, pAKT, pRelA, increased cleaved Parp) with concurrent AXL inhibitor [4]: observed only upon concurrent treatment
ability to restore erlotinib sensitivity ([15]; XL-880 1 μM, HCC827 cells expressing AXL L620M): abrogated the ability
effect on erlotinib resistance induced by overexpression of WT AXL ([15]; XL-880 1 μM, HCC827 cells overexpressing WT AXL): reversed
change of IC50 for XL-880 ([15]; expression of AXL L620M gatekeeper mutant): significantly increased
ability to decrease pAXL [16]: blocked the ability
effect of single-agent treatment on cell viability [5]: did not significantly affect the viability
effect of single-agent treatment on cell viability [1]: did not significantly affect the viability
effect on sensitivity to concurrent erlotinib treatment [1]: restored sensitivity to concurrent erlotinib treatment
